Reference: patent US20180228795A1, “COMBINATION THERAPY FOR CANCER” (Eli Lilly and Company, priority 2015, published 2018)

What was measured:
Assay in all cases: Antitumor effects in PDX mouse model of TNBC
Assay type in all cases: in vivo
[1] = tested on: PDX TNBC Model ST319; conditions: A 10 mg/kg SC BID 3 days on/4 off ×4, B 7.5 mg/kg PO BID×28, versus vehicle
Text: (§1) Establish PDX tumor models from viable human tumor tissue and serially passage in immunocompromised female mice a limited number of times. Using tumor fragments harvested from donor host animals, perform unilateral subcutaneous implants from a specific passage of the PDX tumor model on the flanks of the experimental animals. When tumor volumes reach approximately 150-250 mm^3 in size, randomize the animals by treatment arm by randomization techniques well known in the art and place into their respective treatment groups using 1 animal per treatment group (3 animals in an untreated group). Formulate CHK1 inhibitor, 5-(5-(2-(3-aminopropoxy)-6-methoxyphenyl)-1H-pyrazol-3-ylamino)pyrazine-2-carbonitrile methanesulfonate hydrate, (Compound A) every 14 days in 20% captisol (dissolved in water) and administer subcutaneously twice daily at a dose of 10 mg/kg on days 1/2/3 of a weekly cycle for 4 weeks (SC, BID [3 days on/4 off]×4). Formulate the PI3K/mTOR dual inhibitor, 8-[5-(1-hydroxy-1-methylethyl)pyridin-3-yl]-1-[(2S)-2-methoxypropyl]-3-methyl-1,3-dihydro-2H-imidazo[4,5-c]quinolin-2-one, (Compound B) weekly in 1% (HEC)/0.25% Tween 80 (Polysorbate 80)/0.05% Dow-Corning Antifoam 1510-US and administer by oral gavage twice-daily for 28 days (PO, BID×28) at a dose of 7.5 mg/kg. Dose combination treatment animals with both compounds according to the schedule described above for monotherapy, and dose vehicle treatment animals with vehicle according to the schedule for Compound B.
(§2) Test the combination of Compound A and Compound B, as well as their respective monotherapies, in 40 PDX models (Table 1) of TNBC. Assess antitumor efficacy of the treatment groups by measuring tumor volume via caliper measurements twice a week during the course of the study. Measure body weight twice weekly during the course of the study as a general indicator of tolerability.
(§3) Capture tumor size and body weight twice per week. Estimate tumor volume (V) by using the formula: V=(π/6)×L×W^2 where L=larger of measured diameter and W=smaller perpendicular diameter. Calculate relative tumor volume using the tumor volume measurement taken nearest to the last day of dosing for each animal (T), divided by the baseline tumor volume for that animal (T0), which is the volume recorded on or just prior to the first day of dosing, Y=T/T0. Calculate % ΔT/ΔC values using the formula % ΔT/ΔC=100(YT−1)/(YC−1), whereby YT or YC=geometric mean relative volume of the compound treated group or the control group, respectively. Tumor growth inhibition is observed in those instances where the calculated values for % ΔT/ΔC are less than 100% whereby greater inhibition results in smaller % ΔT/ΔC values. If ΔT<0, then a tumor regression value is calculated instead of % ΔT/ΔC whereby % Regression=100(YT−1). Note that negative values indicate regression. We collectively refer to % ΔT/ΔC and % Regression as % Response.
(§4) Examine relative tumor volume (final volume divided by baseline volume) on the last day of treatment or the last day on which data from all three treatment groups and vehicle is available, if it is earlier than the last day of treatment and at least 14 days after baseline. Expected additive relative volume is determined using the Bliss method (Bliss, C. I., Ann Appl Biol, 1939; 26(3):585-615). Specifically, denoting Y=relative volume, YExp=(Y1*Y2)/YV, where YExp=expected additive relative volume, Y1 and Y2 are the relative volumes in the single agent groups (Compound A and Compound B), and YV is the relative volume in the vehicle group. A range of additivity is defined around the expected additive relative volume via upper and lower limits as follows:
(§5) Yupper=max(2*YExp,YExp+0.2)
(§6) Ylower=min(YExp/2,YExp−0.2)
(§7) The upper limit of the range is the larger of 2-fold above or 20% above the expected additive relative volume, and the lower limit is the smaller of 2-fold below or 20% below the expected additive relative volume. […]

[2] = tested on: PDX TNBC Model ST069; conditions: A 10 mg/kg SC BID 3 days on/4 off ×4, B 7.5 mg/kg PO BID×28, versus vehicle
Text: as §1, §2, §3, §4, §5, §6, §7

[3] = tested on: PDX TNBC Model CTG-1151; conditions: PDX model CTG-1151; A 10 mg/kg SC BID 3 days on/4 off ×4; B 7.5 mg/kg PO BID×28; versus vehicle
Text: as §1, §2, §3, §4, §5, §6, §7

[4] = tested on: PDX TNBC Model MAXF 1384; conditions: PDX model MAXF 1384; A 10 mg/kg SC BID 3 days on/4 off ×4; B 7.5 mg/kg PO BID×28; versus vehicle
Text: as §1, §2, §3, §4, §5, §6, §7

[5] = tested on: PDX TNBC Model CTG-1106; conditions: PDX model CTG-1106; A 10 mg/kg SC BID 3 days on/4 off ×4; B 7.5 mg/kg PO BID×28; versus vehicle
Text: as §1, §2, §3, §4, §5, §6, §7

[6] = tested on: PDX TNBC Model CTG-1242; conditions: PDX model CTG-1242; A 10 mg/kg SC BID 3 days on/4 off ×4; B 7.5 mg/kg PO BID×28; versus vehicle
Text: as §1, §2, §3, §4, §5, §6, §7

[7] = tested on: PDX TNBC Model ST575; conditions: A 10 mg/kg SC BID 3 days on/4 off ×4, B 7.5 mg/kg PO BID×28, versus vehicle
Text: as §1, §2, §3, §4, §5, §6, §7

[8] = tested on: PDX TNBC Model CTG-0052; conditions: PDX model CTG-0052; A 10 mg/kg SC BID 3 days on/4 off ×4; B 7.5 mg/kg PO BID×28; versus vehicle
Text: as §1, §2, §3, §4, §5, §6, §7

[9] = tested on: PDX TNBC Model ST430; conditions: A 10 mg/kg SC BID 3 days on/4 off ×4, B 7.5 mg/kg PO BID×28, versus vehicle
Text: as §1, §2, §3, §4, §5, §6, §7

[10] = tested on: PDX TNBC Model CTG-0869; conditions: PDX model CTG-0869; A 10 mg/kg SC BID 3 days on/4 off ×4; B 7.5 mg/kg PO BID×28; versus vehicle
Text: as §1, §2, §3, §4, §5, §6, §7

[11] = tested on: PDX TNBC Model CTG-1153; conditions: PDX model CTG-1153; A 10 mg/kg SC BID 3 days on/4 off ×4; B 7.5 mg/kg PO BID×28; versus vehicle
Text: as §1, §2, §3, §4, §5, §6, §7

[12] = tested on: PDX TNBC Model CTG-0012; conditions: PDX model CTG-0012; A 10 mg/kg SC BID 3 days on/4 off ×4; B 7.5 mg/kg PO BID×28; versus vehicle
Text: as §1, §2, §3, §4, §5, §6, §7

[13] = tested on: PDX TNBC Model ST2057; conditions: A 10 mg/kg SC BID 3 days on/4 off ×4, B 7.5 mg/kg PO BID×28, versus vehicle
Text: as §1, §2, §3, §4, §5, §6, §7

[14] = tested on: PDX TNBC Model MAXF MX1; conditions: A 10 mg/kg SC BID 3 days on/4 off ×4, B 7.5 mg/kg PO BID×28, versus vehicle
Text: as §1, §2, §3, §4, §5, §6, §7

Row | SMILES | % Rsp. (% ΔT/ΔC or % Regression) [1] | % Rsp. (% ΔT/ΔC or % Regression) [2] | % Rsp. (% ΔT/ΔC or % Regression) [3] | % Rsp. (% ΔT/ΔC or % Regression) [4] | % Rsp. (% ΔT/ΔC or % Regression) [5] | % Rsp. (% ΔT/ΔC or % Regression) [6] | % Rsp. (% ΔT/ΔC or % Regression) [7] | % Rsp. (% ΔT/ΔC or % Regression) [8] | % Rsp. (% ΔT/ΔC or % Regression) [9] | % Rsp. (% ΔT/ΔC or % Regression) [10] | % Rsp. (% ΔT/ΔC or % Regression) [11] | % Rsp. (% ΔT/ΔC or % Regression) [12] | % Rsp. (% ΔT/ΔC or % Regression) [13] | % Rsp. (% ΔT/ΔC or % Regression) [14]
1 | CO[C@@H](C)Cn1c(=O)n(C)c2cnc3ccc(-c4cncc(C(C)(C)O)c4)cc3c21 [Compound B, 8-[5-(1-hydroxy-1-methylethyl)pyridin-3-yl]-1-[(2S)-2-methoxypropyl]-3-methyl-1,3-dihydro-2H-imidazo[4,5-c]quinolin-2-one] | 40.3% | 112.0% | 92.5% | 60.3% | −31.0% | 107.3% | 51.3% | 8.6% | 59.2% | 64.9% | 86.5% | 49.0% | 26.9% | 163.0%
2 | COc1cccc(OCCCN)c1-c1cc(Nc2cnc(C#N)cn2)n[nH]1.CS(=O)(=O)O [Compound A, 5-(5-(2-(3-aminopropoxy)-6-methoxyphenyl)-1H-pyrazol-3-ylamino)pyrazine-2-carbonitrile methanesulfonate hydrate] | 8.9% | −79.6% | −84.6% | 52.8% | −39.0% | 66.8% | −87.5% | 41.3% | 80.9% | 52.6% | −23.6% | 33.4% | 44.8% | 126.1%
